Patent US20080031894A1, “Beta acid based protein kinase modulation cancer treatment” (Metaproteomics, LLC, priority 2006, published 2008)
Marks after values point to notes of the source that are not given here.

What was measured:
[1] = system: adiponectin secretion; assay: Adiponectin secretion in LPS/3T3-L1 adipocytes; assay type: cell-based, murine; settings: LPS 100 ng/ml; for adiponectin secretion, in words: any of the doses tested
[2] = system: IL-6; assay: Serum IL-6 in collagen induced arthritis murine model; assay type: in vivo, mouse; settings: 10 mg/kg
[3] = system: adiponectin secretion; assay: Adiponectin secretion from TNFα-treated 3T3-L1 adipocytes; assay type: cell-based, murine; settings: for maximum increase of adiponectin secretion from the TNFα control: 10 ng/ml TNFα
Experimental: 3T3-L1 cells were seeded at an initial density of 1×10^4 cells/cm^2 in 96-well plates. For two days, the cells were allowed grow to reach confluence. Following confluence, the cells were forced to differentiate into adipocytes by the addition of differentiation medium; this medium consisted of (1) 10% FBS/DMEM (high glucose); (2) 0.5 mM methylisobutylxanthine; (3) 0.5 μM dexamethasone and (4) 10 μg/ml insulin (MDI medium). From Day 3 through Day 5, the medium was changed to post-differentiation medium consisting of 10% FBS in DMEM. […] On Day 6, the supernatant medium was sampled for adiponectin determination.
(§1) Adiponectin Assay—The adiponectin secreted into the medium was quantified using the Mouse Adiponectin Quantikine® Immunoassay kit with no modifications (R&D Systems, Minneapolis, Minn.).
Statistical Calculations and Interpretation—All assays were preformed in duplicate. […] Differences among the doses and test agents were determined using the Student's t-test without correction for multiple comparisons; the nominal five percent probability of a type I error was selected.

[4] = Non-fasting serum glucose and insulin in db/db diabetic mice, three days; assay type: in vivo, mouse; settings: three consecutive days by gavage
Experimental: The Model—Male, C57BLKS/J m^+/m^+ Lepr^db (db/db) mice were used to assess the potential of the test materials to reduce fasting serum glucose or insulin concentrations. This strain of mice is resistant to leptin by virtue of the absence of a functioning leptin receptor.
Testing Procedure—Test substances were administered daily by gavage in 0.2% Tween-80. Serum was collected from the retroorbital sinus before the initial dose and ninety minutes after the third and final dose. Non-fasting serum glucose was determined enzymatically by the mutarotase/glucose oxidase method and serum insulin was determined by a mouse specific ELISA.

[5] = system: adiponectin secretion; assay: Adiponectin secretion from insulin-resistant 3T3-L1 adipocytes; assay type: cell-based, murine
Experimental: 3T3-L1 cells were seeded at an initial density of 1×10^4 cells/cm^2 in 96-well plates. For two days, the cells were allowed grow to reach confluence. Following confluence, the cells were forced to differentiate into adipocytes by the addition of differentiation medium; this medium consisted of (1) 10% FBS/DMEM (high glucose); (2) 0.5 mM methylisobutylxanthine; (3) 0.5 μM dexamethasone and (4) 10 μg/ml insulin (MDI medium). From Day 3 through Day 5, the medium was changed to post-differentiation medium consisting of 10 μg/ml insulin in 10% FBS/DMEM.
Briefly, on Day 6, cells were maintained in serum-free media containing 0.5% bovine serum albumin (BSA) for three hours and then treated with 1 μg insulin/ml plus solvent or insulin plus test material. […] Twenty-four hours later, the supernatant medium was sampled for adiponectin determination.
as §1
Statistical Calculations and Interpretation—All assays were preformed in duplicate. […] Differences between the doses were determined using the student's t-test without correction for multiple comparisons; the nominal five percent probability of a type I error was selected. […]

[6] = system: human PI3K-β, PI3K-γ, and PI3K-δ; assay: Effect of hops components on PI3K activity (FIG. 3); assay type: biochemical; settings: 50 μg/ml
Experimental: Additionally examined was an Acacia nilotica heartwood extract. All compounds were tested at 50 μg/ml. The results are presented graphically as FIG. 3.

[7] = system: PGE2 biosynthesis; assay: PGE2 biosynthesis in A549 pulmonary epithelial cells stimulated by mite dust allergen; assay type: cell-based, human; settings: 10 μg/ml, added 60 minutes prior to mite dust allergen
Text: Mite dust allergen isolation—Dermatophagoides farinae is the American house dust mite. D. farinae were raised on a 1:1 ratio of Purina Laboratory Chow (Ralston Purina, Co, St. Louis, Mo.) and Fleischmann's granulated dry yeast (Standard Brands, Inc. New York, N.Y.) at room temperature and 75% humidity. Live mites were aspirated from the culture container as they migrated from the medium, killed by freezing, desiccated and stored at 0% humidity. The allergenic component of the mite dust was extracted with water at ambient temperature. Five-hundred mg of mite powder were added to 5 ml of water (1:10 w/v) in a 15 ml conical centrifuge tube (VWR, Rochester, N.Y.), shaken for one minute and allowed to stand overnight at ambient temperature. The next day, the aqueous phase was filtered using a 0.2 μm disposable syringe filter (Nalgene, Rochester, N.Y.). The filtrate was termed mite dust allergen and used to test for induction of PGE2 biosynthesis in A549 pulmonary epithelial cells.
Cell culture and treatment—The human airway epithelial cell line, A549 (American Type Culture Collection, Bethesda, Md.) was cultured and treated as previously described in Example 6. Mite allergen was added to the culture medium to achieve a final concentration of 1000 ng/ml. Eighteen hours later, the media were sampled for PGE2 determination.

CC(=O)Oc1ccccc1C(=O)O [Aspirin]
adiponectin secretion, in words [1]: failed to induce adiponectin secretion

CC(C)Cc1ccc(C(C)C(=O)O)cc1 (stereo not drawn) [ibuprofen]
Maximum adiponectin stimulation ([1]; 0.625 μg/ml): 22%

COc1ccc2c(c1)c(CC(=O)O)c(C)n2C(=O)c1ccc(Cl)cc1 [Indomethacin]
Maximum adiponectin stimulation ([1]; […]): 9%

C[C@]12C=CC(=O)C=C1CC[C@@H]1[C@@H]2[C@@H](O)C[C@@]2(C)[C@H]1CC[C@]2(O)C(=O)CO [prednisolone]
serum IL-6 levels, in words [2]: reached a statistical significance

CCc1ccc(CCOc2ccc(CC3SC(=O)NC3=O)cc2)nc1 (stereo not drawn) [Pioglitazone]
Adiponectin Index (relative maximum) ([3]; 10 ng TNFα/ml, [Adiponectin]Test/[Adiponectin]TNFα control): 1.47 | maximum increase of adiponectin secretion from the TNFα control [3]: 80% | Adiponectin Index Observed ([3]; 1.0 μg/ml, indexed to TNFα control (Table 26)): 1.80 | Maximum adiponectin stimulation ([1]; […]): 12%

O=C(O)c1ccccc1O [salicylic acid]
adiponectin secretion, in words [1]: failed to induce adiponectin secretion

CN(C)C(=N)N=C(N)N [metformin]
serum glucose, in words [4]: decreased

CC(C)CCC1=C(O)C(C(=O)C(C)C)=C(O)C(CCC(C)C)(CCC(C)C)C1=O [hexahydrocolupulone]
concentration required for half maximal adiponectin secretion ([5]; Hofstee plot slope): 3.2 µg/mL

Cc1c(C)c2c(c(C)c1O)CCC(C)(COc1ccc(CC3SC(=O)NC3=O)cc1)O2 (stereo not drawn) [Troglitazone]
maximum increase of adiponectin secretion from the TNFα control [3]: 51% | Maximum adiponectin stimulation ([1]; 0.625 μg/ml): 15%

CC(C)CCC1=C(O)C(C(=O)C(C)C)=C(O)C(CCC(C)C)(CCC(C)C)C1=O [Hexahydro-colupulone (HHCL)]
Adiponectin/IL-6 ([5]; 50.0 μg/ml, ratio of indexes (Table 21)): 0.60#

COc1cc(O)c(CC=C(C)C)c(O)c1C(=O)/C=C/c1ccc(O)cc1 [xanthohumol]
PI3K isoform effect, in words [6]: more inhibitory to PI3K-γ than to PI3K-β or PI3K-δ | serum glucose, in words [4]: reduction in serum glucose | serum insulin, in words [4]: no effect on insulin

Beta acids
Percent PGE2 Inhibition [7]: 83%
